From BindingDB's records for patent US10479784 (VERTEX PHARMACEUTICALS INCORPORATED, 2019)

Target: Serine/threonine-protein kinase ATR (Homo sapiens, UniProt Q13535)
Test: Inhibition Assay
Method: Compounds were screened for their ability to inhibit ATR kinase using a radioactive-phosphate incorporation assay. Assays were carried out in a mixture of 50 mM Tris/HCl (pH 7.5), 10 mM MgCl2 and 1 mM DTT. Final substrate concentrations were […] (3mCi 33P ATP/mmol ATP, Perkin Elmer) and 800 μM target peptide ([…]).Assays were carried out at 25° C. in the presence of 5 nM full-length ATR. An assay stock buffer solution was prepared containing all of the reagents listed above, with the exception of ATP and the test compound of interest. […] The plate was pre-incubated for 10 minutes at 25° C. and the reaction initiated by addition of 15 μL [γ-33P]ATP (final concentration 10 μM).The reaction was stopped after […] by the addition of 30 μL 0.1M phosphoric acid containing 2 mM ATP. A multiscreen phosphocellulose filter 96-well plate (Millipore, Cat no. MAPHN0B50) was pretreated with 100 μL 0.2M phosphoric acid prior to the addition of 45 μL of the stopped assay mixture.

Serine/threonine-protein kinase ATR, sequence (Q13535 whole entry): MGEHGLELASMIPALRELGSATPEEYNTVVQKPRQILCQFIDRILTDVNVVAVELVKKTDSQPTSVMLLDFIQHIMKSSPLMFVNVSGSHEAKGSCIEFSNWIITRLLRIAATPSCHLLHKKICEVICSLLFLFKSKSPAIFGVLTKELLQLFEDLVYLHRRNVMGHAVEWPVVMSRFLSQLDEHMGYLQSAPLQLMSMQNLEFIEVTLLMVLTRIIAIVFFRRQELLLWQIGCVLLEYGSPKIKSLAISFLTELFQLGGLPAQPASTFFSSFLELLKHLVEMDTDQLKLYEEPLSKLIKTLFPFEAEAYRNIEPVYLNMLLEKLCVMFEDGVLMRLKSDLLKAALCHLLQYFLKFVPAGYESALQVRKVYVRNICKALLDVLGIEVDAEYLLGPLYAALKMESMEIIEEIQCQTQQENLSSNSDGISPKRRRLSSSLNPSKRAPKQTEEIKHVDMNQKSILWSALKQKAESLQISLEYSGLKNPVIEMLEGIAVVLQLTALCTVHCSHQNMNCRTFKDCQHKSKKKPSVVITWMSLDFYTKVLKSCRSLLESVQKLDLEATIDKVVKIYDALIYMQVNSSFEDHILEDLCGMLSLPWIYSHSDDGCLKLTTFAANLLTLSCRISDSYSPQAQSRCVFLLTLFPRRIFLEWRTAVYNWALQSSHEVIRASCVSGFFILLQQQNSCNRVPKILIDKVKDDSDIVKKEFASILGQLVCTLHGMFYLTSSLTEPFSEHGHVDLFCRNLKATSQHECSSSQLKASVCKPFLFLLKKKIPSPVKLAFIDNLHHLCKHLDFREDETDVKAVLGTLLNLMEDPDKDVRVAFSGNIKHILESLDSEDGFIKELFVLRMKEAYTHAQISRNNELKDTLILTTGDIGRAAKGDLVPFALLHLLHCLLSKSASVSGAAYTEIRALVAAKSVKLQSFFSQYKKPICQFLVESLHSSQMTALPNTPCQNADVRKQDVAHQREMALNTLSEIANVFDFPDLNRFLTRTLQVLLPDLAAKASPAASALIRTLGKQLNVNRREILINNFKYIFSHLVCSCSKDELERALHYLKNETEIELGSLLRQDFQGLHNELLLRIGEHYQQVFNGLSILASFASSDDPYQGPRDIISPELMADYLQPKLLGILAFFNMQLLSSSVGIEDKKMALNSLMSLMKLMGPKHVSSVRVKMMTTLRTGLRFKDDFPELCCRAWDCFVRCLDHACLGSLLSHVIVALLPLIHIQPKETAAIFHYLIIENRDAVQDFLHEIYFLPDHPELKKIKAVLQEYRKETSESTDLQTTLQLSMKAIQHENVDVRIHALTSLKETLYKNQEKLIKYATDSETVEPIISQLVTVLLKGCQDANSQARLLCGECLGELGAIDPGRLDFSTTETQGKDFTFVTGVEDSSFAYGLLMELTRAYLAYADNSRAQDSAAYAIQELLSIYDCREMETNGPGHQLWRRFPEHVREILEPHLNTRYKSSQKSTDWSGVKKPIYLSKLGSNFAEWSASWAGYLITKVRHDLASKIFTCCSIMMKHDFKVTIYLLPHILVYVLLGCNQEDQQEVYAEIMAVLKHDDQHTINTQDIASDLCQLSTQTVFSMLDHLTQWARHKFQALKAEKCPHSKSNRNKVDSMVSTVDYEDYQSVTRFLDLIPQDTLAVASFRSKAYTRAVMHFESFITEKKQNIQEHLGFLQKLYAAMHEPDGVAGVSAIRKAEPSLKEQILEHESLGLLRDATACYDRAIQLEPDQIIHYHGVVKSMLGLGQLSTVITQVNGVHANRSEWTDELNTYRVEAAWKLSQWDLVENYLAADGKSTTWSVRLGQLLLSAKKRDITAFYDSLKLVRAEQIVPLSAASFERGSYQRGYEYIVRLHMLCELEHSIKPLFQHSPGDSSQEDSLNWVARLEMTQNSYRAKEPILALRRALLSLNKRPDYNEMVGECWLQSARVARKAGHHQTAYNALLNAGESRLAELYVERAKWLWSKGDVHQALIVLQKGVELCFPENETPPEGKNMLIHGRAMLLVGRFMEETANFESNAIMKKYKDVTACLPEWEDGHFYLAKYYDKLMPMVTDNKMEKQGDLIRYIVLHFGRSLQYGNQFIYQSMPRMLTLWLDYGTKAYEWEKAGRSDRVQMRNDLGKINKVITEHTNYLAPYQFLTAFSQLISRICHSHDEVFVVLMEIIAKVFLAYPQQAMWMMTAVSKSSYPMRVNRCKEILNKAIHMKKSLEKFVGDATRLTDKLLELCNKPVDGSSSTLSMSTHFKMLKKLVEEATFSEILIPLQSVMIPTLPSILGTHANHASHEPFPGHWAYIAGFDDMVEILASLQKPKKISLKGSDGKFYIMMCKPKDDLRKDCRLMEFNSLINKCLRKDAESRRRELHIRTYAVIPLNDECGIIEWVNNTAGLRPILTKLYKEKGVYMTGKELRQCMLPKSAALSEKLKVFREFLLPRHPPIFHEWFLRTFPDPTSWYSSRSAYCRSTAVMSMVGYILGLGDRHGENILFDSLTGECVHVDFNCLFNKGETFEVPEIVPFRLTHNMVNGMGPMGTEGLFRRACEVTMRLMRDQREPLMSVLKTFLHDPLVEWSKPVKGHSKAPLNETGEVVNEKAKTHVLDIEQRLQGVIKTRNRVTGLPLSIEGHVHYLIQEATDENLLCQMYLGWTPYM

| Ki | Structure (SMILES) |
| --- | --- |
| < 10 nM | CNCc1ccc(C(=N)OC(=N)c2nc(-c3ccc(S(=O)(=O)C(C)C)c(OC(F)(F)F)c3)cnc2N)cc1 [US10479784, Compound IA-290] |
| < 10 nM | CNCc1ccc(C(=N)OC(=N)c2nc(-c3ccc([S+]([O-])C(C)CCOC)cc3)cnc2N)c(F)c1 (configuration not stated) [US10479784, Compound IA-332] |
